We go through two compounds from US6448227B1, “Therapeutically effective substance mixture” (priority 1999, dated 2002).

Read-outs that look alike come from different tables or passages of the source. A value given as a limit tells only on which side of the number the result lay.

For one experiment, the system named is HSV-1 (McIntyre Strain). Briefly: HSV-1 replication in human foreskin fibroblasts (virus titre). It is filed as cell-based, Herpes Simplex virus. To be noted: for Virus titre: human fibroblasts; for Reduction factor: virus titre vs untreated. The procedure:
FIG. 1A relates to the concentration of S-acetyl glutathione of 20 mM, and FIG. 1B to the concentration of 10 mM. […] With the evaluation model used, a combination index of less than 1 signifies a synergistic effect, a combination index equal to 1 an additive effect, and a combination index of greater than 1 an antagonistic effect.

The test system of the next experiment is VZV (Strain 4400/95). The following applies: RPE cells.
Setting [1] is: S-acetyl glutathione 10 mM alone.
Where [2] appears, read: S-acetyl glutathione 20 mM alone.

As for `Nc1nc2c(ncn2COCCO)c(=O)[nH]1` [ACV, 9-[(2-hydroxyethoxy)methyl)guanine], the Virus titre is given as 3.1 × 10^6 TCID60/ml with HSV-1 (McIntyre Strain) (ACV 0.5 μM alone), 3.3 × 10^5 TCID60/ml in the experiment on HSV-1 (McIntyre Strain) (ACV 1 μM alone) and 3.8 × 10^3 TCID60/ml with HSV-1 (McIntyre Strain) (ACV 2 μM alone). For the same compound, the Reduction factor with HSV-1 (McIntyre Strain) (ACV 0.5 μM alone) is 6.8; with HSV-1 (McIntyre Strain) (ACV 1 μM alone), 64; with HSV-1 (McIntyre Strain) (ACV 2 μM alone) it was 5526. The “Effectiveness against HSV-1” value in the experiment with HSV-1 (McIntyre Strain) (ACV alone, especially in the concentration of 2 μM) is reported as “clear effectiveness”.
For `CC(=O)SC[C@H](NC(=O)CC[C@H](N)C(=O)O)C(=O)NCC(=O)O` [S-acetyl glutathione], the Virus titre in the experiment with HSV-1 (McIntyre Strain) (setting [1]) is on record as 1.5 × 10^6 TCID60/ml; with HSV-1 (McIntyre Strain) (setting [2]), 2.4 × 10^5 TCID60/ml. Further, the Reduction factor with HSV-1 (McIntyre Strain) (setting [1]) amounted to 14; in the experiment with HSV-1 (McIntyre Strain) (setting [2]), 91. Also, in the experiment on HSV-1 (McIntyre Strain) (S-acetyl glutathione alone), the “Concentration from which effective against HSV-1” value is recorded as no less than 10 mM. Besides, the Plaque number was found to be 59% in the experiment with VZV (Strain 4400/95) (setting [1]) and 52% with VZV (Strain 4400/95) (setting [2]).
